The values below are quoted from earlier work in patent US20230390254A1, “PHARMACEUTICAL COMPOSITIONS OF UBROGEPANT AND PROCESS FOR PREPARATION THEREOF” (Aurobindo Pharma Ltd, priority 2022, published 2023).

The conditions of data set [1]: disclosed in U.S. Pat. No. 10,117,836.
Test in data set [2]: not given
This is another data set of the same source.

Like-named read-outs stand apart in the source and are kept apart here.

As to `C[C@@H]1[C@H](c2ccccc2)C[C@H](NC(=O)c2cnc3c(c2)C[C@@]2(C3)C(=O)Nc3ncccc32)C(=O)N1CC(F)(F)F` [Ubrogepant, (3′S)—N-((3 S,5S,6R)-6-methyl-2-oxo-5-phenyl-1-(2,2,2trifluoroethyl)piperidin-3-yl)-2′-oxo-1′,2′,5,7 tetrahydrospiro[cyclopenta[b]pyridine-6,3′-pyrrolo[2,3b]pyridine]-3-carboxamide], the solubility result is, setting by setting: (in acetone) “freely soluble”; (in acetonitrile) “freely soluble”; (in ethanol) “freely soluble”; (in methanol) “freely soluble”; (in water) “insoluble”. Moreover, the aqueous solubility result in data set [1] is “poor aqueous solubility”. The “solubility (BCS)” value in data set [2] was “low solubility”.
